Reference: patent US20240166642A1, “INHIBITORS OF MYELOPEROXIDASE” (ASTRAZENECA AB, priority 2022, published 2024)
pIC50: −log10 of the molar value.

Assays:
[1] = biological target: MPO (purified from HL60 cells) (Homo sapiens (Human), UniProt P05164); test: MPO activity (IC50), luminol chemiluminescence assay; format: biochemical; conditions: PBS pH7.4, luminol 100 μM, H2O2 50 μM, chemiluminescence recorded after 15 minutes
Method: (§1) The experiments were performed in phosphate-buffered saline (PBS), pH7.4. A 10 mM luminol (A4695, Sigma Aldrich, St Louis, MO, USA) stock was prepared in distilled water and further diluted in PBS to a final concentration of 100 μM. H2O2 was prepared as 1 mM stock in PBS, yielding a final concentration of 50 μM after addition into the assay. The compounds were serially diluted in DMSO in a separate plate as a 100× stock solution, and MPO (purified from HL60 cells) and TPO (produced in insect cells, RSR Ltd, Cardiff, UK), were diluted to yield a final concentration of approximately 14 and 150 ng/mL, generating 5600 and 9300 light counts per seconds (LCPS) upon incubation with luminol.
(§2) The experiment was run by pipetting 2 μL 100× stock solution of the compound and 200 μL diluted enzyme in PBS into wells in a 96-well Optiplate (6005290, Perkin Elmer/Thermo Fischer, Waltham, MS, USA), followed by addition of 10 μL H2O2 containing PBS. Chemiluminescence measurement (Perkin Elmer Wallac Microbeta Trilux 1450-029 (12-detector), Turkuu, Finland) was started directly and recorded after 2, 10 and 15 minutes.

[2] = biological target: TPO (produced in insect cells, RSR Ltd) (Homo sapiens (Human), UniProt P07202); test: TPO activity (IC50), luminol chemiluminescence assay; format: biochemical; conditions: PBS pH7.4, luminol 100 μM, H2O2 50 μM, chemiluminescence recorded after 15 minutes
Method: as §1, §2

Chain of MPO (purified from HL60 cells) (P05164 49-745): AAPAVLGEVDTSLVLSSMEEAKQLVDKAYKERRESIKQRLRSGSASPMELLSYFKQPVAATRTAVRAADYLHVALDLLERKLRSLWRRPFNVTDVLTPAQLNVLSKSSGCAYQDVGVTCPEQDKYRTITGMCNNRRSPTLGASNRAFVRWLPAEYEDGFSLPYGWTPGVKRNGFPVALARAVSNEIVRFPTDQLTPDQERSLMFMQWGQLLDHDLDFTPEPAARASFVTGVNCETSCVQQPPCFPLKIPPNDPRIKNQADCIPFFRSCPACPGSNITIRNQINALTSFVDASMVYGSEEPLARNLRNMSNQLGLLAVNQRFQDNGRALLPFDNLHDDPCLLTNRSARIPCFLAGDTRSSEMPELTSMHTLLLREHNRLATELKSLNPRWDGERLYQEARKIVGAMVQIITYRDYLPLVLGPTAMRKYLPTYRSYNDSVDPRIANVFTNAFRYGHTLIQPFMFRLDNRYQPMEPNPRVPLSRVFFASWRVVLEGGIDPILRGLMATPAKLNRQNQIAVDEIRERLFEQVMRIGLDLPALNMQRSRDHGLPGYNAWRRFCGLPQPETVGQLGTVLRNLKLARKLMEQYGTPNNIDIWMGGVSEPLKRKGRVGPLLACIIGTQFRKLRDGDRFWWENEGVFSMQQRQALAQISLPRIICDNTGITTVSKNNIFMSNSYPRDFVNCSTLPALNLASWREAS
Chain of TPO (produced in insect cells, RSR Ltd) (P07202 19-933): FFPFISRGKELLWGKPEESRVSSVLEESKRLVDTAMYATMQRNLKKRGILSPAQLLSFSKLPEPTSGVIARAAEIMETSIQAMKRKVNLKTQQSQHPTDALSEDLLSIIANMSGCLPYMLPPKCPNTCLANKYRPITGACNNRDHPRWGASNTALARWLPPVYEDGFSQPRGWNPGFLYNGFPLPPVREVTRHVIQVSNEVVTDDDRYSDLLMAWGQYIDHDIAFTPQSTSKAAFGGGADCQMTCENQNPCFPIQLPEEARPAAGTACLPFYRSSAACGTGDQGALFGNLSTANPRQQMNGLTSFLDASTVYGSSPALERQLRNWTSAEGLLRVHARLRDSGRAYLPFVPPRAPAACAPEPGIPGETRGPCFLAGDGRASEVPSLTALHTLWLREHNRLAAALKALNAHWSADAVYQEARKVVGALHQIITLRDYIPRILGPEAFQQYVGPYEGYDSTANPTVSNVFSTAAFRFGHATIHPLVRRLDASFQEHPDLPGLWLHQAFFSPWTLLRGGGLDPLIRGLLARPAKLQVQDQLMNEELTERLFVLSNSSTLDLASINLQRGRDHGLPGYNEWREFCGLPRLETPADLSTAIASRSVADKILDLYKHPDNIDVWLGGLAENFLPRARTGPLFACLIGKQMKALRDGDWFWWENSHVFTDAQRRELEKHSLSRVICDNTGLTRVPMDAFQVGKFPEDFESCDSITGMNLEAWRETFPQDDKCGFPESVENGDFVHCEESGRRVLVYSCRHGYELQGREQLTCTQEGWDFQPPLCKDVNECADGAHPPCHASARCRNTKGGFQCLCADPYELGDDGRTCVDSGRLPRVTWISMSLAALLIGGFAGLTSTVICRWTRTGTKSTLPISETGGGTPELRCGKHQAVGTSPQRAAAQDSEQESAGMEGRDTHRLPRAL

| Compound | pIC50 [1] | pIC50 [2] |
| --- | --- | --- |
| NC1(c2ccc(Cn3c(=S)[nH]c(=O)c4[nH]ccc43)cc2)CCC1 [Example 24, 1-(4-(1-Aminocyclobutyl)benzyl)-2-thioxo-1,2,3,5-tetrahydro-4H-pyrrolo[3,2-d]pyrimidin-4-one] | 7.92 | 6.25 |
| O=c1[nH]c(=S)n(Cc2cccnc2[C@H]2C[C@H](C(F)(F)F)CCN2)c2cc[nH]c12 (single isomer, unassigned) [Example 31a] | 7.52 | 5.77 |
| O=c1[nH]c(=S)n(Cc2ccc(Cl)cc2[C@H]2CCCCN2)c2cc[nH]c12 (single isomer, unassigned) [Example 2a] | 7.91 | 5.98 |
| O=c1[nH]c(=S)n(Cc2cccnc2C2CCCCN2)c2cc[nH]c12 (stereo not shown) [Example 20, 1-((2-(Piperidin-2-yl)pyridin-3-yl)methyl)-2-thioxo-1,2,3,5-tetrahydro-4H-pyrrolo[3,2-d]pyrimidin-4-one] | 7.34 | 5.56 |
| O=c1[nH]c(=S)n(Cc2ccc(Cl)cc2[C@H]2CCCCN2)c2cc[nH]c12 (single isomer, unassigned) [Example 2b] | 8.44 | 6.26 |
| O=c1[nH]c(=S)n(Cc2cccnc2[C@H]2C[C@@H](C(F)(F)F)CCN2)c2cc[nH]c12 (single isomer, unassigned) [Example 16b] | 8.41 | 6.11 |
| NC1(c2cccc(Cn3c(=S)[nH]c(=O)c4[nH]ccc43)c2)CCC1 [Example 27, 1-(3-(1-Aminocyclobutyl)benzyl)-2-thioxo-1,2,3,5-tetrahydro-4H-pyrrolo[3,2-d]pyrimidin-4-one] | 8.30 | 6.17 |
| O=c1[nH]c(=S)n(Cc2cccnc2[C@H]2C[C@@H](C(F)(F)F)CCN2)c2cc[nH]c12 (single isomer, unassigned) [Example 16a] | 7.50 | 5.79 |
| O=c1[nH]c(=S)n(Cc2ccc(Cl)cc2[C@H]2COCCN2)c2cc[nH]c12 (single isomer, unassigned) [Example 4a] | 7.73 | 6.43 |
| O=c1[nH]c(=S)n(Cc2ccc(Cl)cc2[C@H]2CCCN2)c2cc[nH]c12 (single isomer, unassigned) [Example 3b] | 7.56 | 6.15 |
| O=c1[nH]c(=S)n(Cc2cccnc2[C@H]2C[C@H](C(F)(F)F)CCN2)c2cc[nH]c12 (single isomer, unassigned) [Example 31b] | 7.32 | 5.54 |
| O=c1[nH]c(=S)n(Cc2ccc3c(c2)CNC3)c2cc[nH]c12 [Example 25, 1-(Isoindolin-5-ylmethyl)-2-thioxo-1,2,3,5-tetrahydro-4H-pyrrolo[3,2-d]pyrimidin-4-one] | 6.99 | 6.24 |
| O=c1[nH]c(=S)n(Cc2ccccc2C2CCC(F)CN2)c2nc[nH]c12 (stereo not shown) [Example 15, 3-(2-(5-Fluoropiperidin-2-yl)benzyl)-2-thioxo-1,2,3,7-tetrahydro-6H-purin-6-one] | 7.80 | 6.27 |
| O=c1[nH]c(=S)n(Cc2ncccc2[C@H]2C[C@@H](C(F)(F)F)CCN2)c2cc[nH]c12 (racemic) [Example 21, rac-2-Thioxo-1-((3-((2R,4S)-4-(trifluoromethyl)piperidin-2-yl)pyridin-2-yl)methyl)-1,2,3,5-tetrahydro-4H-pyrrolo[3,2-d]pyrimidin-4-one] | 8.24 | 6.27 |
| O=c1[nH]c(=S)n(Cc2ccccc2[C@H]2C[C@@H](C(F)(F)F)CCN2)c2nc[nH]c12 [Example 13a, 2-Thioxo-3-(2-((2R,4S)-4-(trifluoromethyl)piperidin-2-yl)benzyl)-1,2,3,7-tetrahydro-6H-purin-6-one] | 7.80 | 5.98 |
| O=c1[nH]c(=S)n(Cc2ccc(Cl)cc2[C@H]2CCCN2)c2cc[nH]c12 (single isomer, unassigned) [Example 3a] | 8.52 | 6.26 |
| O=c1[nH]c(=S)n(Cc2ccccc2C2CC(F)(F)CCN2)c2nc[nH]c12 (stereo not shown) [Example 14, 3-(2-(4,4-Difluoropiperidin-2-yl)benzyl)-2-thioxo-1,2,3,7-tetrahydro-6H-purin-6-one] | 8.14 | 6.27 |
| O=c1[nH]c(=S)n(Cc2ccc(Cl)cc2[C@H]2CCCCCN2)c2nc[nH]c12 [Example 7, (R)-3-(2-(Azepan-2-yl)-4-chlorobenzyl)-2-thioxo-1,2,3,7-tetrahydro-6H-purin-6-one] | 8.15 | 6.21 |
| O=c1[nH]c(=S)n(Cc2ccccc2[C@H]2C[C@H](C(F)(F)F)CCN2)c2nc[nH]c12 (single isomer, unassigned) [Example 18b] | 8.57 | 6.39 |
| O=c1[nH]c(=S)n(Cc2cccc3c2CNCC3)c2cc[nH]c12 [Example 23, 1-((1,2,3,4-Tetrahydroisoquinolin-8-yl)methyl)-2-thioxo-1,2,3,5-tetrahydro-4H-pyrrolo[3,2-d]pyrimidin-4-one] | 8.00 | 6.42 |
| O=c1[nH]c(=S)n(Cc2ccccc2[C@H]2C[C@H](C(F)(F)F)CCN2)c2nc[nH]c12 (single isomer, unassigned) [Example 18a] | 7.25 | 6.14 |
| O=c1[nH]c(=S)n(Cc2ccc(Cl)cc2C2COCCN2)c2nc[nH]c12 (stereo not shown) [Example 5, 3-(4-Chloro-2-(morpholin-3-yl)benzyl)-2-thioxo-1,2,3,7-tetrahydro-6H-purin-6-one] | 6.71 | 5.77 |

Now from value to compound:

| pIC50 [1] | pIC50 [2] | Compound |
| --- | --- | --- |
| 7.57 | 6.17 | O=c1[nH]c(=S)n(Cc2ccccc2[C@H]2CC(F)(F)CCN2)c2cc[nH]c12 (single isomer, unassigned) [Example 12a] |
| 8.68 | 6.07 | O=c1[nH]c(=S)n(Cc2ccccc2[C@H]2CCCCN2)c2cc[nH]c12 (single isomer, unassigned) [Example 1b] |
| 8.82 | 6.37 | O=c1[nH]c(=S)n(Cc2ccccc2[C@H]2C[C@@H](C(F)(F)F)CCN2)c2cc[nH]c12 (single isomer, unassigned) [Example 10b] |
| 8.55 | 6.52 | O=c1[nH]c(=S)n(Cc2ccccc2[C@@H]2CCCCCN2)c2cc[nH]c12 (single isomer, unassigned) [Example 6b] |
| 8.52 | 6.17 | O=c1[nH]c(=S)n(Cc2ccccc2C2CCCNC2)c2cc[nH]c12 (stereo not shown) [Example 28, 1-(2-(Piperidin-3-yl)benzyl)-2-thioxo-1,2,3,5-tetrahydro-4H-pyrrolo[3,2-d]pyrimidin-4-one] |
| 8.00 | 5.90 | CN1CCNC(c2ccccc2Cn2c(=S)[nH]c(=O)c3[nH]ccc32)C1 (stereo not shown) [Example 9, 1-(2-(4-Methylpiperazin-2-yl)benzyl)-2-thioxo-1,2,3,5-tetrahydro-4H-pyrrolo[3,2-d]pyrimidin-4-one] |
| 7.17 | 6.03 | O=c1[nH]c(=S)n(Cc2ccccc2[C@@H]2COCCN2)c2cc[nH]c12 [Example 8, (R)-1-(2-(Morpholin-3-yl)benzyl)-2-thioxo-1,2,3,5-tetrahydro-4H-pyrrolo[3,2-d]pyrimidin-4-one] |
| 7.82 | 6.27 | O=c1[nH]c(=S)n(Cc2ccccc2[C@H]2CNCCO2)c2cc[nH]c12 (single isomer, unassigned) [Example 29] |
| 7.71 | 6.38 | O=c1[nH]c(=S)n(Cc2ccccc2[C@@H]2CCCCCN2)c2cc[nH]c12 (single isomer, unassigned) [Example 6a] |
| 8.47 | 6.20 | O=c1[nH]c(=S)n(Cc2ccccc2[C@@H]2C[C@@H](C(F)(F)F)CCN2)c2cc[nH]c12 (stereo in doubt) [Example 17b, rac-2-thioxo-1-(2-((2R,4R)-4-(trifluoromethyl)piperidin-2-yl)benzyl)-1,2,3,5-tetrahydro-4H-pyrrolo[3,2-d]pyrimidin-4-one] |
| 8.22 | 5.92 | O=c1[nH]c(=S)n(Cc2ccccc2[C@H]2C[C@@H](C(F)(F)F)CCN2)c2cc[nH]c12 (single isomer, unassigned) [Example 10a] |
| 8.89 | 6.24 | O=c1[nH]c(=S)n(Cc2ccccc2[C@H]2C[C@@H](C(F)F)CCN2)c2cc[nH]c12 (single isomer, unassigned) [Example 19b] |
| 7.54 | 6.23 | O=c1[nH]c(=S)n(Cc2ccccc2C2CCNCC2)c2cc[nH]c12 [Example 30, 1-(2-(Piperidin-4-yl)benzyl)-2-thioxo-1,2,3,5-tetrahydro-4H-pyrrolo[3,2-d]pyrimidin-4-one] |
| 7.89 | 6.27 | O=c1[nH]c(=S)n(Cc2ccccc2C2CCC(C(F)(F)F)CN2)c2cc[nH]c12 (stereo not shown) [Example 11, 2-Thioxo-1-(2-(5-(trifluoromethyl)piperidin-2-yl)benzyl)-1,2,3,5-tetrahydro-4H-pyrrolo[3,2-d]pyrimidin-4-one] |
| 7.78 | 6.12 | O=c1[nH]c(=S)n(Cc2ccccc2[C@H]2C[C@H](C(F)(F)F)CCN2)c2cc[nH]c12 (stereo in doubt) [Example 17a, rel-2-Thioxo-1-(2-((2R,4R)-4-(trifluoromethyl)piperidin-2-yl)benzyl)-1,2,3,5-tetrahydro-4H-pyrrolo[3,2-d]pyrimidin-4-one] |
| 7.92 | 6.00 | O=c1[nH]c(=S)n(Cc2ccccc2[C@H]2CCCCN2)c2cc[nH]c12 (single isomer, unassigned) [Example 1a] |
